Results published in patent publication US20160102074A1, “SUBSTITUTED AMIDE COMPOUNDS” (PFIZER INC., priority 2014, published 2016).

Key:
[1] = test system: human PCSK9; experiment: PCSK9 AlphaLISA assay, PCSK9 lowering in WT7 cells; conditions: WT7 cells (Huh7 stably over-expressing human PCSK9), secreted PCSK9 by AlphaLISA, overnight incubation (16-24 h), top concentration 20 μM; read-out: Cell Based PCSK9 IC50
Source text: PCSK9 Lowering in WT7 Cells
An in-vitro AlphaLISA assay (Perkin Elmer) was developed in order to quantitate the level of PCSK9 secreted into the cell culture media following compound treatment. To detect and measure PCSK9 protein a mouse monoclonal anti-human PCSK9 antibody was coupled to AlphaLISA acceptor beads by an external vendor (Perkin Elmer) and a second rabbit monoclonal anti-human PCSK9 antibody with an epitope distinct from that of the acceptor beads was biotinylated using the EZ link NHS-LC-LC-Biotin kit (Life Technologies #21338). Streptavidin coated-donor beads (Perkin Elmer) are also included in the assay mixture which then binds the biotinylated anti-PCSK9 antibody and in the presence of PCSK9 this donor complex and acceptor beads are brought into close proximity. Upon excitation of the donor beads at 680 nm singlet oxygen molecules are released that trigger an energy transfer cascade within the acceptor beads resolving as a single peak of light emitted at 615 nm. The ability of compound to modulate PCSK9 protein levels in conditioned media by AlphaLISA was assessed in the human hepatocellular carcinoma cell line Huh7, stably over-expressing human PCSK9. This cell line, termed WT7, was established by transfecting Huh7 cells with an in-house modified pcDNA 3.1 (+) Zeo expression vector (Life Technologies) containing the full-length human PCSK9 sequence (NCBI reference identifier, NM_174936.3, where coding sequence start annotated at position 363) and a c-terminal V5 and 6×-His tag. Following plasmid transfection the stable WT7 clone was identified and maintained under Zeocin selection. Compound screening was performed in 384-well plates where WT7 cells were plated at a density of 7500 cells per well in 20 μL of tissue culture media containing compound in an eleven point, 0.5 log dilution format at a high treatment concentration of 20 μM in a final volume of 0.5% DMSO. In additional to these test compound conditions each screening plate also included wells that contained 20 μM puromycin as a positive assay control defined as high percent effect, HPE, as well as wells containing media in 0.5% DMSO as a negative treatment control defined as zero percent effect, ZPE. After overnight compound incubation (16-24 h) the tissue culture media was collected and an aliquot from each sample was transferred to individual wells of a 384-well white Optiplate (Perkin Elmer). The coupled antibodies and donor beads were added to the assay plates in a buffer composed of 30 mM Tris pH 7.4, 0.02% Tween-20 and 0.02% Casein. Anti-PCSK9 acceptor beads (final concentration of 10 μg/mL) and anti-PCSK9 biotinylated antibody (final concentration of 3 nM) were added and incubated for 30 minutes at room temperature followed by the addition of the streptavidin donor beads (final concentration 40 μg/mL) for an additional 60 minutes. Additionally a standard curve was generated where AlphaLISA reagents were incubated in wells spiked with recombinant human PCSK9 diluted in tissue culture media from 5000 ng/mL to 0.6 ng/mL. Following incubation with AlphaLISA reagents plates were read on an EnVision (Perkin Elmer) plate reader at an excitation wavelength of […] and emission/detection wavelength of […]. To determine compound IC50 the data for HPEand ZPEcontrol wells were first analyzed and the mean, standard deviation and Z prime calculated for each plate. The test compound data were converted into percent effect, using the ZPE and HPE controls as 0% and 100% activity, respectively. The equation used for converting each well reading into percent effect was:
IC50 was then calculated and reported as the midpoint in the percent effect curve in molar units and the values are reported under the Cell Based PCSK9 IC50 (μM) column header within Table 2 Biological Data. […]

[2] = Human hepatocyte in vitro liver metabolism assay (HHep); format: in vitro ADME; conditions: cryopreserved human hepatocytes, 0.5 million viable cells per mL, 37° C.
Source text: In particular, the human intestinal S9 fraction in vitro stability assay (HInt) and human hepatocyte in vitro liver metabolism assay (HHep) provide important information regarding the clearance and metabolic activation of these compounds. The human intestinal S9 fraction in vitro stability assay provides a surrogate measure of compound metabolism as it travels across the gut wall; compounds with low CLint values more likely to enter the portal vein and be exposed to the liver. Likewise, the human hepatocyte in vitro liver metabolism assay provides a surrogate measure of compound metabolism when exposed to liver; compounds with high CLint values are more likely to be metabolically activated. For compounds such as prodrugs that release an active species on metabolic activation, high CLint values in human hepatocytes are desirable. Active compounds released in this way inhibit PCSK9 and show improved atherosclerotic properties by increased exposure of the active metabolite in the liver.
Human Hepatocyte In Vitro Liver Metabolism Assay (HHep)
In order to determine the rate of metabolism leading to conversion of prodrug into active drug form, experiments utilizing human hepatocytes were performed. Hepatocytes are an ideal in vitro system to monitor hepatic metabolism since these intact cells contain all the hepatic enzymes found in vivo, including phase I enzymes (such as CYPs, aldehyde oxidases, esterases and MAOs) and phase II enzymes (such as UDP-glucuronyltransferases and sulfotransferases). The assay utilizes isolated hepatocytes from human donors incubated with the compound of interest in conditions mimicking physiological conditions where the metabolic stability of the compound is investigated. The experimental protocol is as follows. Vials of cryopreserved human hepatocytes (stored in liquid nitrogen until used for testing) were thawed in a water bath (37 to 40° C.) until nearly thawed, transferred to a conical tube, resuspended by inversion and subsequently centrifuged at 50-90 g at room temperature for 5 min. The supernatant was then discarded and the pellet loosened by gently tapping the end of the conical tube. William's E media was then added to achieve the desired final cell density (0.5 million viable cells per mL), and the hepatocytes were then resuspended in this fresh media. The viable cell count was then determined using the trypan blue exclusion method where a minimum viability of 70% was obtained. At this point, new molecular entities (NME's) were prepared for testing. In brief, the NME was diluted with DMSO such that final incubation concentration of NME was […] and final DMSO content was 0.1%. Assays were conducted in a 384-well format at 37° C. in an incubator held at 95% air to 5% CO2 at 95% relative humidity. The per-well incubation total incubation volume was 20 μL including hepatocytes and NME. The assay was performed using 7 hepatocyte plates where the plates were designated as sampling times 0, 15, 30, 60, 120 and 240 min and include hepatocytes and NME, and a no NME control plate with hepatocytes that was taken at 240 min. Two additional no hepatocyte containing control plates were prepared and subsequently sampled at 0 and 240 min, respectively, and were identical to the hepatocyte containing plates with respect to NME and media composition. The incubations were stopped using acetonitrile and prepared for analytical testing using liquid chromatography mass-spectrometry (LC/MS) detection. Each NME was optimized for LC/MS analytical conditions. A disappearance curve was generated from the sample time point analytical peak areas and compared to control plate results (control plates allow artifacts such as non-hepatocyte mediated decline (e.g., media/condition instability for the NME) to be determined). The slope of the disappearance curve was used to determine metabolic stability expressed CLint. […]

SMILES	IC50 [1] [µM]	HHep CLint [2] [μL/min/mil]
CCOC(=O)O[C@@H](C)n1nnnc1-c1c(-c2ccc(C(=O)N(c3ncccc3Cl)[C@@H]3CCCNC3)cc2F)cnn1C [Example 7, ethyl (S)-1-{5-[4-(4-{(3-chloropyridin-2-yl)[(3R)-piperidin-3-yl]carbamoyl}-2-fluorophenyl)-1-methyl-1H-pyrazol-5-yl]-1H-tetrazol-1-yl}ethyl carbonate]	> 20	97.6
CCOC(=O)O[C@@H](C)n1nnnc1-c1c(-c2ccc(C(=O)N(c3ncccc3Cl)[C@@H]3CCCNC3)nc2)cnn1C [Example 10, ethyl (S)-1-{5-[4-(6-{(3-chloropyridin-2-yl)[(3R)-piperidin-3-yl]carbamoyl}pyridin-3-yl)-1-methyl-1H-pyrazol-5-yl]-1H-tetrazol-1-yl}ethyl carbonate]	> 20	11.8
CCOC(=O)O[C@H](C)n1nnnc1-c1c(-c2ccc(C(=O)N(c3ncccc3Cl)[C@@H]3CCCNC3)cc2F)cnn1C [Example 11, ethyl (R)-1-{5-[4-(4-{(3-chloropyridin-2-yl)[(3R)-piperidin-3-yl]carbamoyl}-2-fluorophenyl)-1-methyl-1H-pyrazol-5-yl]-1H-tetrazol-1-yl}ethyl carbonate]	16.1	>170
Cn1ncc(-c2ccc(C(=O)N(c3ncccc3Cl)[C@@H]3CCCNC3)cc2F)c1-c1nn[nH]n1 [Example 3, N-(3-chloropyridin-2-yl)-3-fluoro-4-[1-methyl-5-(2H-tetrazol-5-yl)-1H-pyrazol-4-yl]-N-[(3R)-piperidin-3-yl]benzamide]	> 20	

Continued, in another order:

IC50 [1] [µM]	SMILES	HHep CLint [2] [μL/min/mil]
> 20	CCOC(=O)O[C@@H](C)n1nnnc1-c1c(-c2ccc(C(=O)N(c3ncccc3C)[C@@H]3CCCNC3)nc2)cnn1C [Example 9, ethyl (S)-1-{5-[1-methyl-4-(6-{(3-methylpyridin-2-yl)[(3R)-piperidin-3-yl]carbamoyl}pyridin-3-yl)-1H-pyrazol-5-yl]-1H-tetrazol-1-yl}ethyl carbonate]	7.0
> 20	CCOC(=O)O[C@H](C)n1nnnc1-c1c(-c2ccc(C(=O)N(c3ncccc3C)[C@@H]3CCCNC3)cc2)cnn1C [Example 5b, ethyl (R)-1-{5-[1-methyl-4-(4-{(3-methylpyridin-2-yl)[(3R)-piperidin-3-yl]carbamoyl}phenyl)-1H-pyrazol-5-yl]-1H-tetrazol-1-yl}ethyl carbonate]	85.0
> 20	CCOC(=O)O[C@@H](C)n1nnnc1-c1c(-c2ccc(C(=O)N(c3ncccc3Cl)[C@@H]3CCCNC3)cc2)cnn1C [Example 6, ethyl (S)-1-{5-[1-methyl-4-(4-{(3-chloropyridin-2-yl)[(3R)-piperidin-3-yl]carbamoyl}phenyl)-1H-pyrazol-5-yl]-1H-tetrazol-1-yl}ethyl carbonate]	71.2
> 20	CCOC(=O)O[C@@H](C)n1nnnc1-c1c(-c2ccc(C(=O)N(c3ncccc3C)[C@@H]3CCCNC3)cc2)cnn1C [Example 5a, ethyl (S)-1-{5-[1-methyl-4-(4-{(3-methylpyridin-2-yl)[(3R)-piperidin-3-yl]carbamoyl}phenyl)-1H-pyrazol-5-yl]-1H-tetrazol-1-yl}ethyl carbonate]	57.2
> 20	CCOC(=O)O[C@@H](C)n1nnnc1-c1c(-c2ccc(C(=O)N(c3ncccc3C)[C@@H]3CCCNC3)cc2F)cnn1C [Example 8, ethyl (S)-1-{5-[4-(4-{(3-methylpyridin-2-yl)[(3R)-piperidin-3-yl]carbamoyl}-2-fluorophenyl)-1-methyl-1H-pyrazol-5-yl]-1H-tetrazol-1-yl}ethyl carbonate]	51.3
